The values below come from patent US20260193180A1, “AUTOPHAGY INDUCING COMPOUNDS AND USES THEREOF” (SAMSARA THERAPEUTICS INC., priority 2022, published 2026).

Structures are written as SMILES. Where a name gives a salt, the structure may show the parent alone. Read-outs that look alike come from different tables or passages of the source.

Data set [1] deals with Human osteosarcoma U2OS cells. The data set is described as follows: Acidic vesicle formation (lysosome/autolysosome staining, LysoView 633 / LysoTracker Deep Red), stimulation of autophagy. In kind it is cell-based. The conditions noted are these: 24 hours; for activation at 10 µM: read-out: increase in acidic vesicle formation over the DMSO-treated control; for activation at 0.8 µM: read-out: Activity (percentage increase in acidic vesicle formation over the DMSO-treated control). The procedure, abridged: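 U2OS cells treated with compound for 24 h, then stained 45 min at 37° C with 1× LysoView 633 or 50 nM LysoTracker Deep Red plus Hoechst nuclei. Live-cell fluorescence images (Cy5/DAPI) scored for acidic vesicle formation relative to DMSO control.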

Data set [2] relates to C57BL/6JRj mice injured by intra-nigral injections of alpha-synuclein and CBE. Kind of data set: Mouse model of Parkinson's disease (intra-nigral alpha-synuclein protofibrils plus CBE). In kind it is in vivo. The conditions noted are these: 30 mg/kg per os on the first day, then 10 mg/kg per os once a day; for bar test: decrease in the mean time required to cross the bar compared to the α-syn/CBE injured group / bar test: reduction in the mean number of steps required to cross the bar compared to the α-syn/CBE injured group / bar test: reduction in the number of misplaced steps (failed strides) compared to the α-syn/CBE injured group: week 3; for decrease in the aggregation of α-syn in TH neurons (α-syn area) compared to the α-syn/CBE injured group / grid walking test: increase in the total distance travelled during the test / grid walking test: reduction in the mean number of failures per meter (number of missed steps) / increase in the number of dopaminergic TH positive neurons in the SNpc compared to the α-syn/CBE injured group: week 4. An excerpt: This model (run by Neuro-Sys SAS, France) uses C57BL/6JRj mice injured by intra-nigral injections of a solution containing protofibrils of alpha-synuclein (α-syn, precisely quantified by automatic Western Blot) and combined with pharmacological inhibition of GBA by conduritol B epoxide (CBE), in aged mice. The model mimics the main pathologies of PD: loss of dopaminergic neurons in the substantia nigra, neuroinflammation, deficits in motor coordination and synucleinopathy (α-syn aggregation). Any substance with positive effects in this model may be useful as a new therapeutic agent for the treatment or prevention of PD.
• Type of animal: C57BL/6JRj (Male) • Age: 18 months old • Supplier: Janvier Labs • Animal number: 10 mice per group • Acclimation and clinical signs: Animals arrived on site 7 days (one week) before the experiment to allow optimal acclimation.
Overview: CBE was administered along with the test compounds, starting on the day of the stereotaxic injections of the α-syn oligomer preparation.
Test compounds at specific concentrations (see below) were administered per os (gavage or drinking water). • Test compound treatment: The test compounds were solubilized (vehicle=water), aliquoted and stored at −20° C. Aliquots were thawed overnight at 4° C. and given once a day. Treatment started on the day of the stereotaxic injections of α-syn preparation (Day 0). Treatment was administrated until the last day of the experiment (Day 28; =day of dissection). • CBE dose and administration: 50 mg/kg, Intraperitoneal (i.p.), twice a day. • CBE treatment: Administration of CBE (vehicle=saline [NaCl 0.9%] started on the day of the stereotaxic injections of α-syn preparation (Day 0). Treatment was administrated until the last day of the experiment (Day 28; =day of dissection), • Untreated control: vehicle (saline; i.p.) administered twice a day, • Stereotaxic injections of α-syn oligomers: Human α-syn peptide (stock at 69 μM in water at −20° C.) was reconstituted at 50 μM in NaCl, 0.9% (final concentration). All mice in compound treated groups were subjected to surgery and received 2.5 μL of α-syn solution. Mice were anesthetized by isoflurane (4%, for induction), in an induction chamber coupled with a vaporizer and to an oxygen concentrator. Mice were placed on the stereotaxic frame. Anesthesia was maintained by isoflurane (2%) with a face mask coupled to the isoflurane vaporizer and oxygen concentrator machine. The skull was exposed and holes were drilled. The α-syn preparation was bilaterally injected into the SNpc, at the following coordinates: A-P, −0.3 mm; M-L, +0.12 mm; D-V, −0.45 mm. Depth of anesthesia and rectal temperature were verified every 5 minutes. After surgery, mice were allowed to recover before being placed back in the cage.
• i) Body mass • ii) Assessment of motor coordination: bar test and grid walking test • iii) Dopaminergic Tyrosine hydroxylase (TH)-positive neuron survival in the substantia nigra pars compacta (SNpc), i.e. a measure of the number of TH neurons in the SNpc • iv) α-syn area in TH positive neurons (a measure of the degree of aggregation of α-syn in TH positive neurons, in the SNpc)
• Overall: For overall evaluation and body mass, mice were observed daily, and body mass was monitored prior to drug administration. • Assessment of motor coordination: bar test.
In the third week (Week 3) post-surgery, motor coordination of the mice was assessed with the bar test. The principle of the test is based on the capacity of the mice to cross a horizontal bar connected to a platform (18 mm of diameter, 60 cm long). The test requires good coordination between front and hindlimbs, and good balance. Mice are placed at one extremity of the bar and need to reach a platform located at the other side of the bar. Motor coordination was studied after two training sessions, one and two days before the test. Three sessions were recorded by a video camera system. […]

Data set [3] is described as follows: Bioavailability / brain exposure in CD1 mice. In kind it is in vivo. The conditions noted are these: dose of 30 mg/kg. As to the method:
The compounds have good properties for oral dosing and readily cross the blood brain barrier. For example, in CD1 mice, Compound 9 has a maximum concentration in brain plasma of 5067 ng/ml after 30 minutes at a dose of 30 mg/kg. Compound 12 has a maximum concentration in brain plasma of 5853 ng/ml after 8 hours at a dose of 30 mg/kg.

For data set [4], the system named is U2OS cell line stabling expressing RFP-eGFP-hLC3b. Kind of data set: Tandem reporter assay (autophagic flux), RFP-only puncta (autolysosomes). In kind it is cell-based. The conditions noted are these: Homo sapiens, read-out: Activity (Autolysosome % DMSO activity). As to the method:
Selected compounds of this invention were also assessed for their ability to stimulate autophagy using a U2OS cell line stabling expressing RFP-eGFP-hLC3b (a tandem reporter cell line). This assay is further described in WO 2023/089074.
LC3b is a protein found in the membrane of autophagosomes which has been used to generate genetic reporters of autophagy in cells. In these systems a tandem fusion of LC3b is engineered with two fluorescent proteins of different wavelengths: one which is acid sensitive (for example eGFP, which fluoresces green) and the other which is acid insensitive (for example RFP, which fluoresces red). Cells expressing RFP-eGFP-hLC3b can be examined using fluorescent microscopy: the autophagosomes present will fluoresce in both channels (either yellow in an overlay of both channels or puncta that are present in both the individual red and green channels) but the autolysosomes present will fluoresce in the RFP (red) channel only. Using a fluorescent microscope, the number of autophagosomes and autolysosomes can be counted, allowing for the monitoring of both the induction of autophagy (total puncta count) and the rate of autophagic flux (ratio of red-only to red-and-green puncta). The influence of small molecules on autophagy induction and flux can be assessed using this system by comparison to a non-treated control.
Representative Procedure: Human osteosarcoma U20S cells stably expressing RFP-eGFP-hLC3b were seeded (10,000 cells/well) into a 96-well glass-bottom plate (Cell Carrier Ultra, Perkin Elmer) in DMEM Glutamax media (Gibco) supplemented with 10% Fetal Bovine Serum (FBS) and antibiotics (100 μg/ml penicillin, 100 μg/ml streptomycin, Invitrogen), then incubated overnight in a humified atmosphere at 37° C. and 5% CO2. The cells were then treated with the compounds of interest, dissolved in DMSO, in a duplicated 5- or 10-point dose-response. 8 wells were treated with an equivalent volume of DMSO, 4 with 0.3 μM torin-1 as a positive control (MCE) and 4 wells with 0.4 μM torin-1 plus 0.2 μM bafilomycin (MCE) as a control for flux inhibition. The cells were returned to the incubator and the treatment continued for 24 hours. After treatment, the media was aspirated off and the cells fixed with a solution of 4% formaldehyde+1% glutaraldehyde (Sigma) in dPBS (plus magnesium and calcium, Gibco). Fixation was allowed to proceed for 15 minutes at room temperature then the fixative solution discarded and replaced with PBS (Gibco) plus Hoescht 33342 (1 μg/ml, Sigma). After 30 minutes the plates were imaged on an Opera Phenix confocal microscope (Perkin-Elmer) using a 40× water objective, collecting using DAPI, mCherry and GFP channels. Cells were detected based upon the staining of their nuclei with DAPI using the Harmony image analysis software (Perkin-Elmer) and the number of autophagosomes (GFP and RFP puncta) and autolysosomes (RFP only puncta) per cell were counted using the spot picking function within the software.
(In general: Reporter assays use an easily measured gene product as a stand-in for the process of interest.)

For the molecule `CCOc1ccc(CN2CC[C@H](CN)C2)cc1Cl.Cl` [Compound 23, (R)-(1-(3-chloro-4-ethoxybenzyl)pyrrolidin-3-yl) methanamine hydrochloride], the activation at 10 µM in data set [1] is at least 25%. In data set [2], the “bar test: decrease in the mean time required to cross the bar compared to the α-syn/CBE injured group” value worked out at 11%, the “bar test: reduction in the mean number of steps required to cross the bar compared to the α-syn/CBE injured group” value was determined as 3%, the “bar test: reduction in the number of misplaced steps (failed strides) compared to the α-syn/CBE injured group” value was 39% and the “decrease in the aggregation of α-syn in TH neurons (α-syn area) compared to the α-syn/CBE injured group” value stood at 16%. Also, in data set [2], the “grid walking test: increase in the total distance travelled during the test” value came out at 14%, the “grid walking test: reduction in the mean number of failures per meter (number of missed steps)” value is 14% and the “increase in the number of dopaminergic TH positive neurons in the SNpc compared to the α-syn/CBE injured group” value was 31%.
For the molecule `CCOc1ccc(Cl)cc1CN1CCN[C@@H](C)C1.Cl` [Compound 9, (S)-1-(5-chloro-2-ethoxybenzyl)-3-methylpiperazine hydrochloride], in data set [1], the activation at 0.8 µM lay in the range of 10 to 30% and the activation at 10 µM is at least 25%. Further, in data set [3], the “maximum concentration in brain plasma” value was determined as 5067 ng/mL and the “time of maximum concentration in brain plasma” value was determined as 30 min.
With `CCOc1c(Cl)cc(CN2CC[C@H](CN)C2)cc1C#N` [Compound 82, (R)-5-((3-(aminomethyl)pyrrolidin-1-yl)methyl)-3-chloro-2-ethoxybenzonitrile hydrochloride], the activity at 1.25 µM in data set [4] (one run) lay within 150 to 200%.
Turning to `N[C@@H]1CCCN(Cc2cc(Cl)c(OCC3CC3)c(Cl)c2)C1` [Compound 97, (R)-1-{[3,5-dichloro-4-(cyclopropylmethoxy)phenyl]methyl}-3-piperidylamine hydrochloride], the activity at 1.25 µM in data set [4] (average of two runs) lay within 150 to 200%.
The same measure, in the same setting: in the case of `N[C@@H]1CCCN(CCc2ccc(OCC3CC3)c(Cl)c2)C1` [Compound 80, (R)-1-(3-chloro-4-(cyclopropylmethoxy)phenethyl)piperidin-3-amine formate salt] it was 250 to 300%.
Same read-out and setting: the value for `CCOc1ccc(CCN2CC[C@@H](N)C2)cc1F` [Compound 88, (R)-1-[2-(4-ethoxy-3-fluorophenyl)ethyl]-3-pyrrolidinylamine hydrochloride] was 150 to 200%.
`CCOc1ccc(CCN2CC[C@H](N)C2)cc1C#N` [Compound 85, (S)-5-(2-(3-aminopyrrolidin-1-yl)ethyl)-2-ethoxybenzonitrile hydrochloride]: the activity at 1.25 µM in data set [4] (one run) was in the range of 150 to 200%.
In the case of `COCCOc1c(Cl)cc(CCN2CCC[C@H](N)C2)cc1Cl` [Compound 72, (S)-1-(3,5-dichloro-4-(2-methoxyethoxy)phenethyl)piperidin-3-amine hydrochloride], the activity at 0.5 µM in data set [4] (0.5 μM, average of two runs) lay in the range of 150 to 200%.
Regarding `CCOc1ccc(CN2CC[C@@H](CN)C2)cc1Cl.Cl` [Compound 30, (S)-(1-(3-chloro-4-ethoxybenzyl)pyrrolidin-3-yl)methanamine hydrochloride], in data set [1], the activation at 0.8 µM is above 100% and the activation at 10 µM is at least 25%. In data set [2], the “bar test: decrease in the mean time required to cross the bar compared to the α-syn/CBE injured group” value is on record as 25%, the “bar test: reduction in the mean number of steps required to cross the bar compared to the α-syn/CBE injured group” value stood at 7%, the “bar test: reduction in the number of misplaced steps (failed strides) compared to the α-syn/CBE injured group” value is 19% and the “decrease in the aggregation of α-syn in TH neurons (α-syn area) compared to the α-syn/CBE injured group” value came out at 30%. Besides, in data set [2], the “grid walking test: increase in the total distance travelled during the test” value came out at 36%, the “grid walking test: reduction in the mean number of failures per meter (number of missed steps)” value was 28% and the “increase in the number of dopaminergic TH positive neurons in the SNpc compared to the α-syn/CBE injured group” value is on record as 57%.
Turning to `NC1CCN(Cc2ccc(OCC3CC3)c(Cl)c2)CC1` [Compound 81, 1-(3-chloro-4-(cyclopropylmethoxy)benzyl)piperidin-4-amine hydrochloride], the activity at 1.25 µM in data set [4] (average of two runs) lay within 150 to 200%.
As to `COCCOc1ccc(CCN2CCC[C@@H](N)C2)cc1Cl` [Compound 89, (R)-1-{2-[3-chloro-4-(2-methoxyethoxy)phenyl]ethyl}-3-piperidylamine hydrochloride], the activity at 1.25 µM in data set [4] (average of two runs) was in the range of 150 to 200%.
On the same count and under the same terms, the value for `N[C@@H]1CCN(Cc2cc(Cl)c(OCC3CC3)c(Cl)c2)C1` [Compound 73, (R)-1-(3,5-dichloro-4-(cyclopropylmethoxy)benzyl)pyrrolidin-3-amine hydrochloride] was 250 to 300%.
